Measurements: US12227488B2, “Small molecule degraders of Helios and methods of use” (DANA-FARBER CANCER INSTITUTE, INC., priority 2018, dated 2025)

What was measured:
[1] = target: GSPT1 (Homo sapiens, UniProt P15170+Q96SW2); test: Cellular degradation assay, eGFP-GSPT1 fusion with mCherry reporter in Flp-In 293 cells; type: cell-based; set-up: expressed in transfected cells; host or cells: Flp-In 293; conditions: 5 h incubation, n=1
Procedure, shortened: (§1)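 Flp-In 293 cells stably expressing eGFP-tagged degron fusions with P2A-mCherry reporter were treated with compound titrations (0.5% DMSO) for 5 hours. Imaging quantified GFP-positive/mCherry-positive cell fraction per well; DC50 at 5 h from nonlinear variable-slope fit.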

[2] = target: T1, CRBN and Helios (IKZF2) (Homo sapiens, UniProt Q96SW2+Q9UKS7); test: TR-FRET dimerization assay (CRBN-IKZF2 ternary complex formation); type: binding; conditions: n=1
T1 construct: His (N); Strep (N)
Procedure, shortened: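 BODIPY-labeled DDB1ΔB-CRBN and in vitro biotinylated IKZF2 were treated with increasing compound concentrations plus tracer Terbium-Streptavidin and incubated 15 min at rt. Recruitment was quantified as the 520/490 nm TR-FRET ratio; values are single measurements (n=1), each averaged from at least three technical replicates.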

[3] = system: IKZF2; test: Cellular degradation assay, eGFP-IKZF2Δ fusion with mCherry reporter in Flp-In 293 cells; type: cell-based; conditions: 5 h incubation, n=1
Procedure, shortened: as §1

[4] = target: T2, SALL4 ZNF1-2 (Homo sapiens, UniProt Q96SW2+Q9UJQ4); test: Cellular degradation assay, eGFP-SALL4 ZnF1-2 fusion with mCherry reporter in Flp-In 293 cells; type: cell-based; conditions: 5 h incubation, n=1
T2 construct: IKZF1Δ, IKZF2Δ, GSPT1 and SALL4 ZnF1-2 were subcloned; expressed in transfected cells; host or cells: Flp-In 293
Experimental: IKZF1Δ, IKZF2Δ, GSPT1 and SALL4 ZnF1-2 were subcloned into mammalian pcDNA5/FRT Vector (Ampicillin and Hygromycin B resistant) modified to contain MCS-eGFP-P2A-mCherry. Stable cell lines expressing eGFP-protein fusion and mCherry reporter were generated using Flp-In™ 293 system. Plasmid (0.3 μg) and pOG44 (4.7 μg) DNA were preincubated in 100 μL of Opti-MEM® I (Gibco®, Life Technologies™) media containing 0.05 mg/mL Lipofectamine® 2000 (Invitrogen™) for 20 min and added to Flp-In™ 293 cells containing 1.9 ml of DMEM media (Gibco®, Life Technologies™) per well in a 6-well plate format (Falcon, 353046). Cells were propagated after 48 h and transferred into a 10 cm^2 plate (Corning, 430165) in DMEM media containing 50 μg/mL of Hygromycin B (REF 10687010, Invitrogen™) as a selection marker. Following 2-3 passage cycle, FACS (FACSAria™ II, BD) was used to enrich for cells expressing eGFP and mCherry. Cells stably expressing the IKZF1Δ, IKZF2Δ, GSPT1 or SALL4 Znf1-2 GFP fusions with mCherry reporter were seeded at 30-50% confluency in 384-well plates with 50 μL FluoroBrite™ DMEM media (Thermo Fisher Scientific, A18967) containing 10% FBS per well a day before compound treatment. Compound titrations were dispensed using a D300e Digital Dispenser (HP), normalized to 0.5% DMSO, and incubated with cells for 5 hours. The assay plate was imaged immediately using an Acumen® High Content Imager (TTP Labtech) with 488 nm and 561 nm lasers in […] grid per well format.
The resulting images were analyzed using CellProfiler™. A series of image analysis steps (‘image analysis pipeline’) was constructed. First, the red and green channels were aligned and cropped to target the middle of each well (to avoid analysis of heavily clumped cells at the edges), and a background illumination function was calculated for both red and green channels of each well individually and subtracted to correct for illumination variations across the 384-well plate from various sources of error. An additional step was then applied to the green channel to suppress the analysis of large auto fluorescent artifacts and enhance the analysis of cell specific fluorescence by way of selecting for objects under a given size, 30 A.U., and with a given shape, speckles. mCherry-positive cells were then identified in the red channel filtering for objects between 8-60 pixels in diameter and using intensity to distinguish between clumped objects. The green channel was then segmented into GFP positive and negative areas and objects were labeled as GFP positive if at least 40% of it overlapped with a GFP positive area. The fraction of GFP-positive cells/mCherry-positive cells in each well was then calculated, and the green and red images were rescaled for visualization.

[5] = target: T3, IKZF1 (Homo sapiens, UniProt Q13422); test: Cellular degradation assay, eGFP-IKZF1Δ fusion with mCherry reporter in Flp-In 293 cells; type: cell-based; conditions: 5 h incubation, n=1
T3 construct: expressed in transfected cells; host or cells: Flp-In 293
Procedure, shortened: as §1

[6] = compound concentration 2.00E−05
[7] = compound concentration 2.00E−06
[8] = compound concentration 2.00E−07
[9] = compound concentration 6.6667E−05
[10] = compound concentration 6.6667E−06
[11] = compound concentration 6.6667E−07 (667 nM)

T2 sequence (Q9UJQ4 378-438 limits assumed): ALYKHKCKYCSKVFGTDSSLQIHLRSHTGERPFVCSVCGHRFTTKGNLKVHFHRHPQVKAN
T2 sequence (Q96SW2 whole entry, the tested form may be a part): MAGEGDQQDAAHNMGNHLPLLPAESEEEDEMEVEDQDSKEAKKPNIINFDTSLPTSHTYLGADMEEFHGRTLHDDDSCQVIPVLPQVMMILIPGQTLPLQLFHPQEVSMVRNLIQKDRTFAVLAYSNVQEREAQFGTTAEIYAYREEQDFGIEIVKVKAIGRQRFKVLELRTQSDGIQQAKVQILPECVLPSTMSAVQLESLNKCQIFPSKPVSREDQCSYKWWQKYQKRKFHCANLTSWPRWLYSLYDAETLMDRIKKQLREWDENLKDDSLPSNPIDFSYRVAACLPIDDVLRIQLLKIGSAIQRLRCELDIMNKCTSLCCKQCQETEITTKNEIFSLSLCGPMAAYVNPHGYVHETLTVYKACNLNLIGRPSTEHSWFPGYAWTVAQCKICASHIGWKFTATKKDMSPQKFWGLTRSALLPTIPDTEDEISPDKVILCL
T2 sequence (Q16531 whole entry partner, the tested form may be a part): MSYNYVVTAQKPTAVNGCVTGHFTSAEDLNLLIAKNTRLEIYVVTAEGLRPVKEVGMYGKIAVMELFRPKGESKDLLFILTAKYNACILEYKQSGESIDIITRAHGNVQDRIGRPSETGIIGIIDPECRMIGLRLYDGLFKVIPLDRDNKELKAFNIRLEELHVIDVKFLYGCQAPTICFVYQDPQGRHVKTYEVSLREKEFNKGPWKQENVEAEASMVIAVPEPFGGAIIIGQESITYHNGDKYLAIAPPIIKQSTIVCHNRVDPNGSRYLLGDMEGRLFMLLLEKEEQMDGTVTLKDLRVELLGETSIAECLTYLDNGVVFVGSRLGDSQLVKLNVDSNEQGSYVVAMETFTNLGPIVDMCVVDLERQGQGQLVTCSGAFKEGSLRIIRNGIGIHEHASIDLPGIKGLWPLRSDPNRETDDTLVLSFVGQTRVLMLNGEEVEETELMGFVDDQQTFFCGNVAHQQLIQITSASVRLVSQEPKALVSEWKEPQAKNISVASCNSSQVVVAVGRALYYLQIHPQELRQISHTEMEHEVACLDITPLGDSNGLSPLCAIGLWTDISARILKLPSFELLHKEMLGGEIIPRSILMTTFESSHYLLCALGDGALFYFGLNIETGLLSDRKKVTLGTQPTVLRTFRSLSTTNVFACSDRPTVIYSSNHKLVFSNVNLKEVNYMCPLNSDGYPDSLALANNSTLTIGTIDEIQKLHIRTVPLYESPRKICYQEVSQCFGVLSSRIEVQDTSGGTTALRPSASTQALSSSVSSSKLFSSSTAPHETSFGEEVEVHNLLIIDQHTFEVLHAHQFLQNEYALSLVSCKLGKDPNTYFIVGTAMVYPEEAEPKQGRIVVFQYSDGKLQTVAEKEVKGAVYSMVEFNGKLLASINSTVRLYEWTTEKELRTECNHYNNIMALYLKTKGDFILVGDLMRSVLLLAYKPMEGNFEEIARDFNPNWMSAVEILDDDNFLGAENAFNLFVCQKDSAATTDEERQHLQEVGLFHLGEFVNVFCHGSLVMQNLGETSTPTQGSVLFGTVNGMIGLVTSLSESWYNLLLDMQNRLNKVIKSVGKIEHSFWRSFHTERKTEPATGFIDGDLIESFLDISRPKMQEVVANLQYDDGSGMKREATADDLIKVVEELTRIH
T3 sequence (Q13422 83-213 isoform Q13422-7 limits assumed): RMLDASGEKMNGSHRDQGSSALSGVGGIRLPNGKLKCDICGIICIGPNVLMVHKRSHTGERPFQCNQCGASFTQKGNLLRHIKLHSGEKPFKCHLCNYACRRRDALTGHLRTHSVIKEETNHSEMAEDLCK
T3 sequence (Q96SW2 whole entry partner, the tested form may be a part): as the sequence (Q96SW2 whole entry, the tested form may be a part) above
T3 sequence (Q16531 2-1140 partner limits assumed): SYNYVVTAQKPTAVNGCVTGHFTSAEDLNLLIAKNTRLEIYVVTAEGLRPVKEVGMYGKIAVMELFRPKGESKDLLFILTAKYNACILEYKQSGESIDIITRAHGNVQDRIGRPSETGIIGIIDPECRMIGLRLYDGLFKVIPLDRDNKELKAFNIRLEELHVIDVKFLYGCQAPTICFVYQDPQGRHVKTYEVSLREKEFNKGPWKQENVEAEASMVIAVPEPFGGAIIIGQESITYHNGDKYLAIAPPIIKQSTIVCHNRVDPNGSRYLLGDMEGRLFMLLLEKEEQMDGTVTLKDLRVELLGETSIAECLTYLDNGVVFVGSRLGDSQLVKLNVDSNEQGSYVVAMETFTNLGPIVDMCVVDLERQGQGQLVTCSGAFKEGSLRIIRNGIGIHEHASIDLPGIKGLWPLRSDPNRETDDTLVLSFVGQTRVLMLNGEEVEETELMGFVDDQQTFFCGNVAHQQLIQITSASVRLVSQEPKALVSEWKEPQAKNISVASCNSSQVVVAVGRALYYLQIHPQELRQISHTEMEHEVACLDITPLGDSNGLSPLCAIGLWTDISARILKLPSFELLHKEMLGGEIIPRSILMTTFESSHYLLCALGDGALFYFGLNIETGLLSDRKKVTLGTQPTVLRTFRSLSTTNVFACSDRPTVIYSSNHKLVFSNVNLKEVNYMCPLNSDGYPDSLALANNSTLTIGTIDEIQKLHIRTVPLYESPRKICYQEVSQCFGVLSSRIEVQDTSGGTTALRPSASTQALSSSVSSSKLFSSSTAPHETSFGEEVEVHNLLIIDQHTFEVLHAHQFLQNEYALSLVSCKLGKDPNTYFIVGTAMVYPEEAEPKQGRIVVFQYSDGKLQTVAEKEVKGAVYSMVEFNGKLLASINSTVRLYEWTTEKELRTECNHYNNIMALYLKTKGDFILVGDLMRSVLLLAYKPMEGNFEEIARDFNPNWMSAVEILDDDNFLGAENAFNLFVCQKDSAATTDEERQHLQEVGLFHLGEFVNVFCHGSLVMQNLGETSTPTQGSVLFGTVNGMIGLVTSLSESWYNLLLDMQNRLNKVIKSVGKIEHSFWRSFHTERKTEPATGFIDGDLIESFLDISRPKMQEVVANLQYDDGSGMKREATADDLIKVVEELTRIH
T1 sequence (Q96SW2 whole entry): as the sequence (Q96SW2 whole entry, the tested form may be a part) above
T1 sequence (Q9UKS7 whole entry): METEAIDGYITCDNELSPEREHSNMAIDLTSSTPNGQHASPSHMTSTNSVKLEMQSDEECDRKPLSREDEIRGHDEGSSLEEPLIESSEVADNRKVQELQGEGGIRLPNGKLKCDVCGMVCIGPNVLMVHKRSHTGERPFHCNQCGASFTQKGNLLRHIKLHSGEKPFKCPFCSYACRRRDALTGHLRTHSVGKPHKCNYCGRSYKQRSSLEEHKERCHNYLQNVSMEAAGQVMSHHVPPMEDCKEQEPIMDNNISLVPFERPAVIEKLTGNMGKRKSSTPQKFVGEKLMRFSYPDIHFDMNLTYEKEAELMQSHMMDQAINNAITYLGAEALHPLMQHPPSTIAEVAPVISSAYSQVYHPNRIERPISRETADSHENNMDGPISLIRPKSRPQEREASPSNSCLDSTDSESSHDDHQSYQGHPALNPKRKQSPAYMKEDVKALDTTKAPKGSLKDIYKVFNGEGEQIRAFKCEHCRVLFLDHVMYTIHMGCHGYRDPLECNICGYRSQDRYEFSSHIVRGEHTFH
GSPT1, sequence (P15170 whole entry, the tested form may be a part): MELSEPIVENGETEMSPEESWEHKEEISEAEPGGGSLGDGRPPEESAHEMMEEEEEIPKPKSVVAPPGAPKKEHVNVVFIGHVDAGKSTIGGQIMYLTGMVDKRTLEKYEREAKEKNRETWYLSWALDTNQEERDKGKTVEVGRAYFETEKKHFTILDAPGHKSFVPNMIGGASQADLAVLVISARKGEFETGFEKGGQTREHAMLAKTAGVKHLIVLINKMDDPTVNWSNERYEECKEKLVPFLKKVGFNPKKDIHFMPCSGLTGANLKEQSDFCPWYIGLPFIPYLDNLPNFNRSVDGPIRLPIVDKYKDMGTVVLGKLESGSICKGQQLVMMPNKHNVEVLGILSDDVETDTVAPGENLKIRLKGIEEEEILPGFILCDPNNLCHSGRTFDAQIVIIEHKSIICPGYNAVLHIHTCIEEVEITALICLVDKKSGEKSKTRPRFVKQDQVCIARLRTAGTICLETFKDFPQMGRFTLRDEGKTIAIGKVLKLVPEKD
GSPT1, sequence (Q96SW2 whole entry, the tested form may be a part): as the sequence (Q96SW2 whole entry, the tested form may be a part) above
GSPT1, sequence (Q16531 whole entry partner, the tested form may be a part): as the sequence (Q16531 whole entry partner, the tested form may be a part) above

Row | Structure (SMILES) | GSPT1 GFP/RFP Relative Abundance [1, 6] | GSPT1 GFP/RFP Relative Abundance [1, 7] | GSPT1 GFP/RFP Relative Abundance [1, 8] | TR-FRET-IKZF2 (Normalized to CC-885) [2, 9] | TR-FRET-IKZF2 (Normalized to CC-885) [2, 10] | TR-FRET-IKZF2 (Normalized to CC-885) [2, 11] | IKZF2 GFP/RFP Relative Abundance [3, 6] | IKZF2 GFP/RFP Relative Abundance [3, 7] | IKZF2 GFP/RFP Relative Abundance [3, 8] | SALL4 ZNF1-2 GFP/RFP Relative Abundance [4, 6] | SALL4 ZNF1-2 GFP/RFP Relative Abundance [4, 7] | SALL4 ZNF1-2 GFP/RFP Relative Abundance [4, 8] | IKZF1 GFP/RFP Relative Abundance [5, 6] | IKZF1 GFP/RFP Relative Abundance [5, 7] | IKZF1 GFP/RFP Relative Abundance [5, 8]
1 | O=C1CCC(N2C(=O)C=C(Nc3ccc(Cc4ccccc4)cc3)C2=O)C(=O)N1 (stereo not drawn) [Compound 39, 3-(3-((4-benzylphenyl)amino)-2,5-dioxo-2,5-dihydro-1H-pyrrol-1-yl)piperidine-2,6-dione] | 0.743 | 0.813 | 0.830 | 0.271 | 0.230 | 0.174 | 1.070 | 1.008 | 1.047 | 1.110 | 1.006 | 1.043 | 0.705 | 0.691 | 0.677
2 | CCOC(=O)CNC1=CC(=O)N(C2CCC(=O)NC2=O)C1=O (stereo not drawn) [Compound 16, Ethyl (1-(2,6-dioxopiperidin-3-yl)-2,5-dioxo-2,5-dihydro-1H-pyrrol-3-yl)glycinate] | 0.978 | 0.876 | 1.006 | 0.032 | 0.028 | 0.018 | 0.987 | 1.015 | 1.006 | 1.001 | 1.007 | 1.013 | 1.070 | 1.011 | 1.053
3 | O=C1CCC(N2C(=O)C=C(Nc3ccc(Cl)cc3)C2=O)C(=O)N1 (stereo not drawn) [Compound 25, 3-(3-((4-chlorophenyl)amino)-2,5-dioxo-2,5-dihydro-1H-pyrrol-1-yl)piperidine-2,6-dione] | 1.019 | 1.233 | 1.201 | 0.339 | 0.282 | 0.230 | 0.966 | 0.978 | 0.955 | 0.831 | 0.897 | 0.887 | 0.258 | 0.298 | 0.341
4 | Cc1ccc(NC2=CC(=O)N(C3CCC(=O)NC3=O)C2=O)cc1C#N (stereo not drawn) [Compound 5, 5-((1-(2,6-dioxopiperidin-3-yl)-2,5-dioxo-2,5-dihydro-1H-pyrrol-3-yl)amino)-2-methylbenzonitrile] | 0.714 | 0.843 | 1.050 | 0.376 | 0.296 | 0.187 | 0.930 | 1.000 | 1.020 | 1.008 | 0.946 | 0.992 | 0.395 | 0.478 | 0.650
5 | COC(=O)CN(C)C1=CC(=O)N(C2CCC(=O)NC2=O)C1=O (stereo not drawn) [Compound 15, Methyl N-(1-(2,6-dioxopiperidin-3-yl)-2,5-dioxo-2,5-dihydro-1H-pyrrol-3-yl)-N-methylglycinate] | 1.009 | 1.036 | 1.043 | 0.050 | 0.039 | 0.025 | 1.024 | 1.036 | 1.028 | 0.912 | 0.910 | 1.047 | 1.041 | 1.032 | 0.996
6 | CCOC(=O)c1cccc(NC2=CC(=O)N(C3CCC(=O)NC3=O)C2=O)c1 (stereo not drawn) [Compound 30, Ethyl 3-((1-(2,6-dioxopiperidin-3-yl)-2,5-dioxo-2,5-dihydro-1H-pyrrol-3-yl)amino)benzoate] | 1.100 | 1.129 | 1.192 | 0.386 | 0.324 | 0.228 | 0.916 | 0.928 | 0.979 | 0.815 | 0.786 | 0.896 | 0.388 | 0.437 | 0.631
7 | Cc1ccc(NC2=CC(=O)N(C3CCC(=O)NC3=O)C2=O)cc1Cl (stereo not drawn) [Compound 3, 3-(3-((3-chloro-4-methylphenyl)amino)-2,5-dioxo-2,5-dihydro-1H-pyrrol-1-yl)piperidine-2,6-dione] | 1.204 | 1.006 | 1.190 | 0.357 | 0.267 | 0.253 | 1.032 | 0.973 | 0.979 | 0.914 | 0.884 | 0.879 | 0.242 | 0.370 | 0.349
8 | CN(C1=CC(=O)N(C2CCC(=O)NC2=O)C1=O)c1ccccc1 (stereo not drawn) [Compound 28, 3-(3-(methyl(phenyl)amino)-2,5-dioxo-2,5-dihydro-1H-pyrrol-1-yl)piperidine-2,6-dione] | 1.001 | 0.917 | 0.805 | 0.072 | 0.050 | 0.053 | 1.006 | 1.011 | 1.064 | 0.969 | 0.936 | 0.946 | 0.978 | 0.996 | 1.029
